The text below walks through data of patent publication US9580390B2, “Indazole compounds as kinase inhibitors and method of treating cancer with same” (University Health Network, priority 2011, dated 2017).

In general, GI50 refers to the concentration giving 50% growth inhibition. A word on the IC50: it is the concentration that inhibits the measured activity by half.

For experiment [1], the system named is colon cancer cells (HCT116). Description: Cancer cell line growth inhibition (SRB assay). It is filed as cell-based. As to conditions: Homo sapiens, HCT-116; HCT116 colon cancer cells, SRB assay; read-out: Cancer Cell Line GI50 Range HCT116.
Protocol: Breast cancer cells (MDA-MB-231), colon cancer cells (HCT116) and ovarian cancer cells (PA-1) were seeded (1000 to 4000 in 80 μl per well depending on the cell growth rate) into 96 well plates 24 hours before compound overlay. Compounds were prepared as 10 mM stock solutions in 100% DMSO which were diluted with DMEM (Dulbecco's Modified Eagle's Medium) cell growth Medium (Invitrogen, Burlington, ON, Canada) containing 10% FBS (Fetal Bovine Serum) to concentrations ranging from 50 nM to 250 μM. Aliquots (20 μl) from each concentration were overlaid to 80 μl of the pre-seeded cells in the 96 well plates to make final concentrations of 10 nM to 50 μM. The cells were cultured for 5 days before the Sulforhodamine B assay (SRB) was performed to determine the compound's cell growth inhibition activity.
Sulforhodamine B (purchased from Sigma, Oakville, ON, Canada) is a water-soluble dye that binds to the basic amino acids of the cellular proteins. Thus, colorimetric measurement of the bound dye provides an estimate of the total protein mass that is related to the cell number. the cells are fixed in situ by gently aspirating off the culture media and adding 50 μl ice cold 10% Trichloroacetic Acid (TCA) per well and incubate at 4° C. for 30-60 min. The plates are washed with H2O five times and allowed to air dry for 5 min. Addition of 50 μl 0.4% (w/v) SRB solution in 1% (v/v) acetic acid to each well and incubation for 30 min at RT completes the staining reaction. Following staining, plates are washed four times with 1% acetic acid to remove unbound dye and then allowed to air dry for 5 min. The stain is solubilized with 100 μl of 10 mM Tris pH 10.5 per well. Absorbance is read at 570 nm.
The percentage (%) of relative growth inhibition was calculated by comparing to DMSO treated only cells (100%). GI50's were determined for compounds with cytotoxic activity. The GI50 was calculated using GraphPad PRISM software (GraphPad Software, Inc., San Diego, Calif., USA).
The test system of experiment [2] is ovarian cancer cells (PA-1). Put plainly: Cancer cell line growth inhibition (SRB assay). Type of experiment: cell-based. The conditions noted are these: PA-1 ovarian cancer cells, SRB assay; read-out: Cancer Cell Line GI50 Range PA-1. Background: The SRB assay estimates cell density from bound dye.
For a further experiment, the system named is TICs (Colon 12). Description: Colon tumor-initiating cell growth inhibition (Alamar Blue). It is filed as cell-based. The conditions noted are these: 216 h; colon TICs, 9 days, Alamar Blue; read-out: Tumor Initiating Cell GI50 Range Colon 12. (The colour change of resazurin is a common sign of viable cells or microbes.)
The test system of the next experiment is TICs (Ovarian 2393A). Put plainly: Ovarian tumor-initiating cell growth inhibition (Alamar Blue). It is filed as cell-based. As to conditions: 144 h; ovarian TICs, 6 days, Alamar Blue; read-out: Tumor Initiating Cell GI50 Range Ovarain 2393A.
A further experiment deals with T1, human PLK4 (Homo sapiens, UniProt O00444).
T1 construct: amino terminal GST fusion of residues 1-391 of human PLK4; made in house; host or cells: E. coli
T1 sequence (O00444 1-391): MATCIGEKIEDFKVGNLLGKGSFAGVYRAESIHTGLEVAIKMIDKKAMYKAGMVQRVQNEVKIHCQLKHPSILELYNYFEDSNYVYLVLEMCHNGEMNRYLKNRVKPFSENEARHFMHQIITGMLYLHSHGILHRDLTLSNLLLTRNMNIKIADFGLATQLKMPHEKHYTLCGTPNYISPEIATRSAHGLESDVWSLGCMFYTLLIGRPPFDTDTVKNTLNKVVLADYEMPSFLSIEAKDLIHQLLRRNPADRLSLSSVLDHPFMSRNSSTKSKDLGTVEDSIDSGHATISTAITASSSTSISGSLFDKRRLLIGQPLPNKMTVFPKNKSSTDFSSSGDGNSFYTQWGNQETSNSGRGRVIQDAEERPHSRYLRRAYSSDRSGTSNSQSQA
Put plainly: PLK4 inhibition assay (indirect ELISA). Type of experiment: biochemical. The conditions noted are these: 15 μM ATP. In outline: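 Dephosphorylated GST-PLK4 (residues 1-391, E. coli; 4 nM) was preincubated 15 min with compound, then reacted 30 min with 15 μM ATP in HEPES pH 7.4, MgCl2, Brij 35 on MBP-coated plates. Phospho-MBP was detected by antibody/HRP ELISA at 450 nm; IC50 from 10-point titration by 4-parameter logistic fit, or single 10 μM % inhibition.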

For the compound `O=CN1CCC(Oc2ccc(-c3n[nH]c4ccc(C(=O)NC(c5ccsc5)C5CC5)cc34)cc2)CC1` (stereo not drawn) [Example A186, N-(cyclopropyl(thiophen-3-yl)methyl)-3-(4-((1-formylpiperidin-4-yl)oxy)phenyl)-1H-indazole-5-carboxamide], the GI50 (in experiment [1]; in experiment [2]; in the experiment with TICs (Colon 12); in the experiment on TICs (Ovarian 2393A)) was below 100 nM throughout. For the same compound, at human PLK4, the IC50 is below 50 nM.

For the compound `CN1CCC(Oc2ccc(-c3n[nH]c4ccc(C(=O)NC(c5ccccc5)C5CC5)cc34)cc2Cl)CC1` (stereo not drawn) [Example A188, 3-(3-chloro-4-((1-methylpiperidin-4-yl)oxy)phenyl)-N-(cyclopropyl(phenyl)methyl)-1H-indazole-5-carboxamide], the GI50 in experiment [1] was 100 to 500 nM; in experiment [2], 100 to 500 nM; in the experiment on TICs (Colon 12), above 500 nM; with TICs (Ovarian 2393A), above 500 nM. At human PLK4, the IC50 is below 50 nM.

Take `CO[C@@H](C(=O)Nc1ccc2[nH]nc(-c3ccc(OC4CCN(C=O)CC4)cc3)c2c1)c1ccccc1` [Example A169, (R)-N-(3-(4-((1-formylpiperidin-4-yl)oxy)phenyl)-1H-indazol-5-yl)-2-methoxy-2-phenylacetamide]: the GI50 was 100 to 500 nM in experiment [1], 100 to 500 nM in experiment [2], above 500 nM in the experiment on TICs (Colon 12) and above 500 nM with TICs (Ovarian 2393A). The IC50 on human PLK4 is below 50 nM.

Turning to `CN1CCC(Oc2ccc(-c3n[nH]c4ccc(C(=O)NC(c5ccsc5)C5CCCC5)cc34)cc2)CC1` (stereo not drawn) [Example A110, N-(cyclopentyl(thiophen-3-yl)methyl)-3-(4-((1-methylpiperidin-4-yl)oxy)phenyl)-1H-indazol-5-carboxamide], the GI50 in experiment [1] was below 100 nM; in experiment [2] it was below 100 nM; with TICs (Colon 12) it was below 100 nM; with TICs (Ovarian 2393A), 100 to 500 nM. For the same compound, at human PLK4, the half-inhibitory concentration (IC50) was below 50 nM.

Take `CN1CCC(Oc2ccc(-c3n[nH]c4ccc(C(=O)N[C@H](c5sccc5Cl)C5CC5)cc34)cc2)CC1` [Example A167, (S)-N-((3-chlorothiophen-2-yl)(cyclopropyl)methyl)-3-(4-((1-methylpiperidin-4-yl)oxy)phenyl)-1H-indazole-5-carboxamide]: the GI50 in experiment [1] is below 100 nM; in experiment [2], 100 to 500 nM; with TICs (Colon 12), below 100 nM; with TICs (Ovarian 2393A) it was below 100 nM. Also, the IC50 at human PLK4 is below 50 nM.

For `CC[C@H](NC(=O)c1ccc2[nH]nc(-c3ccc(OC4CCN(C5COC5)CC4)cc3)c2c1)c1ccccc1Cl` [Example A193, (S)-N-(1-(2-chlorophenyl)propyl)-3-(4-((1-(oxetan-3-yl)piperidin-4-yl)oxy)phenyl)-1H-indazole-5-carboxamide], the GI50 was below 100 nM in experiment [1], below 100 nM in experiment [2], below 100 nM with TICs (Colon 12) and 100 to 500 nM in the experiment on TICs (Ovarian 2393A). Besides, the IC50 at human PLK4 was below 50 nM.

With `O=CN1CCC(Oc2ccc(-c3n[nH]c4ccc(NC(=O)C(c5ccsc5)N5CCCC5)cc34)cc2)CC1` (stereo not drawn) [Example A118, N-(3-(4-((1-formylpiperidin-4-yl)oxy)phenyl)-1H-indazol-5-yl)-2-(pyrrolidin-1-yl)-2-(thiophen-3-yl)acetamide], the GI50 is below 100 nM in experiment [1], below 100 nM in experiment [2], 100 to 500 nM in the experiment with TICs (Colon 12) and below 100 nM with TICs (Ovarian 2393A). Further, the IC50 on human PLK4 is below 50 nM.

As to `CN1CCC(Oc2ccc(-c3n[nH]c4ccc(NC(=O)C(c5ccccc5)C5CC5)cc34)cc2)CC1` (stereo not drawn) [Example A138, 2-cyclopropyl-N-(3-(4-((1-methylpiperidin-4-yl)oxy)phenyl)-1H-indazol-5-yl)-2-phenylacetamide], the GI50 in experiment [1] is below 100 nM; in experiment [2] it was below 100 nM; in the experiment on TICs (Colon 12), below 100 nM; in the experiment on TICs (Ovarian 2393A), 100 to 500 nM. Further, the IC50 at human PLK4 was below 50 nM.

For `CC(C)OC(C(=O)Nc1ccc2[nH]nc(-c3ccc(OC4CCN(C)CC4)cc3)c2c1)c1ccccc1` (stereo not drawn) [Example A187, 2-isopropoxy-N-(3-(4-((1-methylpiperidin-4-yl)oxy)phenyl)-1H-indazol-5-yl)-2-phenylacetamide], the GI50 was below 100 nM in experiment [1], below 100 nM in experiment [2], 100 to 500 nM in the experiment with TICs (Colon 12) and above 500 nM with TICs (Ovarian 2393A). In addition, the IC50 at human PLK4 was below 50 nM.

Turning to `CN1CCC(Oc2ccc(-c3n[nH]c4ccc(C(=O)NC(c5ccccc5Cl)C5CC5)cc34)cc2)CC1` (stereo not drawn) [Example A150, N-((2-chlorophenyl)(cyclopropyl)methyl)-3-(4-((1-methylpiperidin-4-yl)oxy)phenyl)-1H-indazole-5-carboxamide], the GI50 (in experiment [1]; in experiment [2]; in the experiment with TICs (Colon 12); in the experiment on TICs (Ovarian 2393A)) was below 100 nM throughout. The IC50 at human PLK4 is below 50 nM.

`COCCN1CCC(Oc2ccc(-c3n[nH]c4ccc(C(=O)N[C@H](c5ccsc5)C5CC5)cc34)cc2)CC1` [Example A154, (S)-N-(cyclopropyl(thiophen-3-yl)methyl)-3-(4-((1-(2-methoxyethyl)piperidin-4-yl)oxy)phenyl)-1H-indazole-5-carboxamide]: the concentration for 50% growth inhibition (GI50) in experiment [1] was below 100 nM; in experiment [2], 100 to 500 nM; with TICs (Colon 12), below 100 nM; in the experiment with TICs (Ovarian 2393A), below 100 nM. Further, the IC50 at human PLK4 was below 50 nM.

`CN1CCC(Oc2ccc(-c3n[nH]c4ccc(C(=O)N[C@H](CCO)c5ccccc5)cc34)cc2)CC1` [Example A137, (R)-N-(3-hydroxy-1-phenylpropyl)-3-(4-((1-methylpiperidin-4-yl)oxy)phenyl)-1H-indazole-5-carboxamide]: the GI50 in experiment [1] was below 100 nM; in experiment [2], 100 to 500 nM; in the experiment on TICs (Colon 12), above 500 nM; in the experiment on TICs (Ovarian 2393A), 100 to 500 nM. Besides, on human PLK4, the IC50 is below 50 nM.

Consider `CN1CCC(Oc2ccc(-c3n[nH]c4ccc(C(=O)NC(c5ccccc5F)C5CC5)cc34)cc2)CC1` (stereo not drawn) [Example A136, N-(cyclopropyl(2-fluorophenyl)methyl)-3-(4-((1-methylpiperidin-4-yl)oxy)phenyl)-1H-indazole-5-carboxamide], for which the GI50 was below 100 nM in experiment [1], below 100 nM in experiment [2], above 500 nM in the experiment with TICs (Colon 12) and below 100 nM in the experiment on TICs (Ovarian 2393A). For the same compound, at human PLK4, the half-inhibitory concentration (IC50) was below 50 nM.

Consider `CN1CCC(Oc2ccc(-c3n[nH]c4ccc(C(=O)N[C@H](CCO)c5ccccc5)cc34)cc2Cl)CC1` [Example A202, (R)-3-(3-chloro-4-((1-methylpiperidin-4-yl)oxy)phenyl)-N-(3-hydroxy-1-phenylpropyl)-1H-indazole-5-carboxamide], for which the GI50 in experiment [1] is below 100 nM; in experiment [2] it was below 100 nM; with TICs (Colon 12) it was 100 to 500 nM; in the experiment with TICs (Ovarian 2393A), 100 to 500 nM. In addition, the half-maximal inhibitory concentration (IC50) at human PLK4 is below 50 nM.

In the case of `CC[C@@H](NC(=O)c1ccc2[nH]nc(-c3ccc(OC4CCN(CCOC)CC4)cc3)c2c1)c1ccccc1Cl` [Example A128, (R)-N-(1-(2-chlorophenyl)propyl)-3-(4-((1-(2-methoxyethyl)piperidin-4-yl)oxy)phenyl)-1H-indazole-5-carboxamide], the GI50 was below 100 nM in experiment [1], 100 to 500 nM in experiment [2], below 100 nM in the experiment on TICs (Colon 12) and 100 to 500 nM with TICs (Ovarian 2393A). Besides, at human PLK4, the half-maximal inhibitory concentration (IC50) is below 50 nM.

Regarding `O=C(Nc1ccc2[nH]nc(-c3ccc(OC4CCN(C5COC5)CC4)cc3)c2c1)C(c1ccsc1)N1CCCC1` (stereo not drawn) [Example A184, N-(3-(4-((1-(oxetan-3-yl)piperidin-4-yl)oxy)phenyl)-1H-indazol-5-yl)-2-(pyrrolidin-1-yl)-2-(thiophen-3-yl)acetamide], the GI50 was below 100 nM in experiment [1], below 100 nM in experiment [2], 100 to 500 nM in the experiment with TICs (Colon 12) and below 100 nM in the experiment with TICs (Ovarian 2393A). Also, at human PLK4, the IC50 is below 50 nM.

`COCCN1CCC(Oc2ccc(-c3n[nH]c4ccc(NC(=O)C(c5ccsc5)N5CCCC5)cc34)cc2)CC1` (stereo not drawn) [Example A175, N-(3-(4-((1-(2-methoxyethyl)piperidin-4-yl)oxy)phenyl)-1H-indazol-5-yl)-2-(pyrrolidin-1-yl)-2-(thiophen-3-yl)acetamide]: the GI50 in experiment [1] was below 100 nM; in experiment [2] it was below 100 nM; in the experiment with TICs (Colon 12), 100 to 500 nM; in the experiment with TICs (Ovarian 2393A), below 100 nM. In addition, the IC50 at human PLK4 is below 50 nM.

In the case of `Cc1ccccc1C(C(=O)Nc1ccc2[nH]nc(-c3ccc(OC4CCN(C)CC4)cc3)c2c1)N1CCCC1` (stereo not drawn) [Example A133, N-(3-(4-((1-methylpiperidin-4-yl)oxy)phenyl)-1H-indazol-5-yl)-2-(pyrrolidin-1-yl)-2-(o-tolyl)acetamide], the GI50 was below 100 nM in experiment [1], below 100 nM in experiment [2], below 100 nM with TICs (Colon 12) and 100 to 500 nM in the experiment with TICs (Ovarian 2393A). For the same compound, the IC50 on human PLK4 was below 50 nM.
